In publication PMC4832243, “Discovery of Potent VEGFR-2 Inhibitors based on Furopyrimidine and Thienopyrimidne Scaffolds as Cancer Targeting Agents” (Scientific Reports, 2016):

How the values were obtained:
[1] = target: T1, VEGFR-2 (KDR) (Homo sapiens, UniProt P35968); test: In vitro VEGFR-2 tyrosine kinase activity (Kinase-Glo Plus luminescence, BPS Bioscience); type: biochemical
T1 construct: purchased BPS Bioscience 40301

[2] = tested on: HL-60(TB); test: NCI 60 cell line panel (SRB), HL-60(TB); type: cell-based; details: Homo sapiens, Leukemia, single dose of 10 μM, read-out: Cell Growth Percent
[3] = tested on: K-562; test: NCI 60 cell line panel (SRB), K-562; type: cell-based; details: Homo sapiens, K562; K-562, Leukemia; single dose of 10 μM; read-out: Cell Growth Percent
[4] = tested on: RPMI-8226; test: NCI 60 cell line panel (SRB), RPMI-8226; type: cell-based; details: Homo sapiens; RPMI-8226, Leukemia; single dose of 10 μM; read-out: Cell Growth Percent
[5] = tested on: SR; test: NCI 60 cell line panel (SRB), SR; type: cell-based; details: Homo sapiens, Leukemia, single dose of 10 μM, read-out: Cell Growth Percent
[6] = tested on: EKVX; test: NCI 60 cell line panel (SRB), EKVX; type: cell-based; details: Homo sapiens, Non-Small Cell Lung Cancer, single dose of 10 μM, read-out: Cell Growth Percent
[7] = tested on: HOP-92; test: NCI 60 cell line panel (SRB), HOP-92; type: cell-based; details: Homo sapiens; HOP-92, Non-Small Cell Lung Cancer; single dose of 10 μM; read-out: Cell Growth Percent
[8] = tested on: NCI-H226; test: NCI 60 cell line panel (SRB), NCI-H226; type: cell-based; details: Homo sapiens; NCI-H226, Non-Small Cell Lung Cancer; single dose of 10 μM; read-out: Cell Growth Percent
[9] = tested on: NCI-H322M; test: NCI 60 cell line panel (SRB), NCI-H322M; type: cell-based; details: Homo sapiens, Non-Small Cell Lung Cancer, single dose of 10 μM, read-out: Cell Growth Percent
[10] = tested on: NCI-H460; test: NCI 60 cell line panel (SRB), NCI-H460; type: cell-based; details: Homo sapiens; NCI-H460, Non-Small Cell Lung Cancer; single dose of 10 μM; read-out: Cell Growth Percent
[11] = tested on: NCI-H522; test: NCI 60 cell line panel (SRB), NCI-H522; type: cell-based; details: Homo sapiens; NCI-H522, Non-Small Cell Lung Cancer; single dose of 10 μM; read-out: Cell Growth Percent
[12] = tested on: HT29; test: NCI 60 cell line panel (SRB), HT29; type: cell-based; details: Homo sapiens, HT-29; HT29, Colon Cancer; single dose of 10 μM; read-out: Cell Growth Percent
[13] = tested on: SF-268; test: NCI 60 cell line panel (SRB), SF-268; type: cell-based; details: Homo sapiens; SF-268, CNS Cancer; single dose of 10 μM; read-out: Cell Growth Percent
[14] = tested on: SF-295; test: NCI 60 cell line panel (SRB), SF-295; type: cell-based; details: Homo sapiens; SF-295, CNS Cancer; single dose of 10 μM; read-out: Cell Growth Percent
[15] = tested on: MDA-MB-435; test: NCI 60 cell line panel (SRB), MDA-MB-435; type: cell-based; details: Homo sapiens; MDA-MB-435, Melanoma; single dose of 10 μM; read-out: Cell Growth Percent
[16] = tested on: SK-MEL-2; test: NCI 60 cell line panel (SRB), SK-MEL-2; type: cell-based; details: Homo sapiens; SK-MEL-2, Melanoma; single dose of 10 μM; read-out: Cell Growth Percent
[17] = tested on: SK-MEL-5; test: NCI 60 cell line panel (SRB), SK-MEL-5; type: cell-based; details: Homo sapiens; SK-MEL-5, Melanoma; single dose of 10 μM; read-out: Cell Growth Percent
[18] = tested on: UACC-257; test: NCI 60 cell line panel (SRB), UACC-257; type: cell-based; details: Homo sapiens; UACC-257, Melanoma; single dose of 10 μM; read-out: Cell Growth Percent
[19] = tested on: UACC-62; test: NCI 60 cell line panel (SRB), UACC-62; type: cell-based; details: Homo sapiens; UACC-62, Melanoma; single dose of 10 μM; read-out: Cell Growth Percent
[20] = tested on: OVCAR-4; test: NCI 60 cell line panel (SRB), OVCAR-4; type: cell-based; details: Homo sapiens; OVCAR-4, Ovarian Cancer; single dose of 10 μM; read-out: Cell Growth Percent
[21] = tested on: OVCAR-5; test: NCI 60 cell line panel (SRB), OVCAR-5; type: cell-based; details: Homo sapiens; OVCAR-5, Ovarian Cancer; single dose of 10 μM; read-out: Cell Growth Percent
[22] = tested on: OVCAR-8; test: NCI 60 cell line panel (SRB), OVCAR-8; type: cell-based; details: Homo sapiens; OVCAR-8, Ovarian Cancer; single dose of 10 μM; read-out: Cell Growth Percent
[23] = tested on: NCI/ADR-RES; test: NCI 60 cell line panel (SRB), NCI/ADR-RES; type: cell-based; details: Homo sapiens, Ovarian Cancer, single dose of 10 μM, read-out: Cell Growth Percent
[24] = tested on: 786-0; test: NCI 60 cell line panel (SRB), 786-0; type: cell-based; details: Homo sapiens; 786-0, Renal Cancer; single dose of 10 μM; read-out: Cell Growth Percent
[25] = tested on: A498; test: NCI 60 cell line panel (SRB), A498; type: cell-based; details: Homo sapiens; A498, Renal Cancer; single dose of 10 μM; read-out: Cell Growth Percent
[26] = tested on: ACHN; test: NCI 60 cell line panel (SRB), ACHN; type: cell-based; details: Homo sapiens, Renal Cancer, single dose of 10 μM, read-out: Cell Growth Percent
[27] = tested on: CAKI-1; test: NCI 60 cell line panel (SRB), CAKI-1; type: cell-based; details: Homo sapiens; CAKI-1, Renal Cancer; single dose of 10 μM; read-out: Cell Growth Percent
[28] = tested on: SN12C; test: NCI 60 cell line panel (SRB), SN12C; type: cell-based; details: Homo sapiens, Renal Cancer, single dose of 10 μM, read-out: Cell Growth Percent
[29] = tested on: PC-3; test: NCI 60 cell line panel (SRB), PC-3; type: cell-based; details: Homo sapiens; PC-3, Prostate Cancer; single dose of 10 μM; read-out: Cell Growth Percent
[30] = tested on: DU-145; test: NCI 60 cell line panel (SRB), DU-145; type: cell-based; details: Homo sapiens; DU-145, Prostate Cancer; single dose of 10 μM; read-out: Cell Growth Percent
[31] = tested on: MCF7; test: NCI 60 cell line panel (SRB), MCF7; type: cell-based; details: Homo sapiens; MCF7, Breast Cancer; single dose of 10 μM; read-out: Cell Growth Percent
[32] = tested on: HS 578T; test: NCI 60 cell line panel (SRB), HS 578T; type: cell-based; details: Homo sapiens, Breast Cancer, single dose of 10 μM, read-out: Cell Growth Percent
[33] = tested on: T-47D; test: NCI 60 cell line panel (SRB), T-47D; type: cell-based; details: Homo sapiens, T47D, Breast Cancer, single dose of 10 μM, read-out: Cell Growth Percent
[34] = tested on: MDA-MB-468; test: NCI 60 cell line panel (SRB), MDA-MB-468; type: cell-based; details: Homo sapiens; MDA-MB-468, Breast Cancer; single dose of 10 μM; read-out: Cell Growth Percent

T1 sequence (P35968 20-1356): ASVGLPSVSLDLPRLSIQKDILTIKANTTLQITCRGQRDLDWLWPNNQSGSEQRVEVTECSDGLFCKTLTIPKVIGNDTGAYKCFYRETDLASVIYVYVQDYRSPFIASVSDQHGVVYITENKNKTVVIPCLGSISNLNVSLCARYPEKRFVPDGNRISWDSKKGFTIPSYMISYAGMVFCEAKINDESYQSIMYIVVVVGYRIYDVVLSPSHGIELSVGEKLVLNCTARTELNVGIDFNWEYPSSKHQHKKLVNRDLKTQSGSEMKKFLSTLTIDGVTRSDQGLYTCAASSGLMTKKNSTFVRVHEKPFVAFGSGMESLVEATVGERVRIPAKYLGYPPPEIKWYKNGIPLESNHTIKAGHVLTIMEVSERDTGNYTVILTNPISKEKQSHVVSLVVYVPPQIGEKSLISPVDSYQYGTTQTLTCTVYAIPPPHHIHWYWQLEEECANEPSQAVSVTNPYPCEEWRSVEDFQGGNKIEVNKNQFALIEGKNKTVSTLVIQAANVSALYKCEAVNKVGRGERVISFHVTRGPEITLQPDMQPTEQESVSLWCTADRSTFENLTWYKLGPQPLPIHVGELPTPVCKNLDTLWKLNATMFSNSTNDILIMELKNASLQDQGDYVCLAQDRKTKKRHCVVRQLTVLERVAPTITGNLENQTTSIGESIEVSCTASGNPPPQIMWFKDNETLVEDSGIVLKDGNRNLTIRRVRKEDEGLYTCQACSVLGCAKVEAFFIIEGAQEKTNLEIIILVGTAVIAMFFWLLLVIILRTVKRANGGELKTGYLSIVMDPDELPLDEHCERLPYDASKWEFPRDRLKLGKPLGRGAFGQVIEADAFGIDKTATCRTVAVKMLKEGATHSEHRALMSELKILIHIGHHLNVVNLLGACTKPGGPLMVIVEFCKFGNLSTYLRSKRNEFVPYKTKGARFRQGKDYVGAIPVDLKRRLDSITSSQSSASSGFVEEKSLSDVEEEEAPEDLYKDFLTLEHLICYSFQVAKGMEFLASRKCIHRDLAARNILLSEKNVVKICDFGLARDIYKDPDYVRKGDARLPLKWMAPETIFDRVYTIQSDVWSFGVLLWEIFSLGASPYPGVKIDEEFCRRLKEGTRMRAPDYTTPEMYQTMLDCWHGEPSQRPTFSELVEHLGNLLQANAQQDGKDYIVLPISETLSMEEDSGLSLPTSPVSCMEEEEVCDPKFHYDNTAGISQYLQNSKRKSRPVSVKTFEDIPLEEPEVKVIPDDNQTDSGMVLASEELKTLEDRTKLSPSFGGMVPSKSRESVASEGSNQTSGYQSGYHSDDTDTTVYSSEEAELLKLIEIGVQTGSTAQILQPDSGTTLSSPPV

SMILES | activity at 10 µM [2] [%] | activity at 10 µM [3] [%] | activity at 10 µM [4] [%] | activity at 10 µM [5] [%] | activity at 10 µM [6] [%] | activity at 10 µM [7] [%] | activity at 10 µM [8] [%] | activity at 10 µM [9] [%] | activity at 10 µM [10] [%] | activity at 10 µM [11] [%] | activity at 10 µM [12] [%] | activity at 10 µM [13] [%] | activity at 10 µM [14] [%] | activity at 10 µM [15] [%] | activity at 10 µM [16] [%] | activity at 10 µM [17] [%] | activity at 10 µM [18] [%] | activity at 10 µM [19] [%] | activity at 10 µM [20] [%] | activity at 10 µM [21] [%] | other results
COc1cccc(NC(=O)Nc2ccc(Oc3ncnc4sc5c(c34)CCCC5)cc2)c1 [Compound 21c] | 106 | 64.6 | 46.7 | 50.9 | 66.2 | 79 | 65.1 | 95.8 | 65.7 | 21 | 54.8 | 72 | 76.1 | 73.1 | 97.3 | 63.6 | 100 | 70.9 | 56.6 | 105 | IC50 ([1]; 5 concentrations 1 nM - 10 μM): 0.047 µM; activity at 10 µM [22]: 89.9%; activity at 10 µM [23]: 70.5%; activity at 10 µM [24]: 97.6%; activity at 10 µM [25]: 67.8%; activity at 10 µM [26]: 75%; activity at 10 µM [27]: 80.8%; activity at 10 µM [28]: 78.2%; activity at 10 µM [29]: 45%; activity at 10 µM [30]: 82.4%; activity at 10 µM [31]: 54.4%; activity at 10 µM [32]: 60.9%; activity at 10 µM [33]: 41.7%; activity at 10 µM [34]: 69.3%
CCOC(=O)c1c(C)oc2ncnc(Nc3ccc(C(=O)Nc4cccc(Cl)c4)cc3)c12 [Compound 14a] | 105 | 87 | 94.6 | 74.8 | 102 | 92 | 97 | 99.7 | 100 | 78 | 83.6 | 103 | 115 | 106 | 99.8 | 92.2 | 117 | 67.6 | 98 | 116 | inhibition at 10 µM ([1]; single dose concentration of 10 μM): 5%; activity at 10 µM [22]: 103%; activity at 10 µM [23]: 99.4%; activity at 10 µM [24]: 96.3%; activity at 10 µM [25]: 92.4%; activity at 10 µM [26]: 114%; activity at 10 µM [27]: 99.2%; activity at 10 µM [28]: 94.1%; activity at 10 µM [29]: 78.3%; activity at 10 µM [30]: 75.9%; activity at 10 µM [31]: 90.6%; activity at 10 µM [32]: 107%; activity at 10 µM [33]: 98.2%; activity at 10 µM [34]: 90.9%
